Read-outs that look alike come from different tables or passages of the source.
Key:
Assay type in all cases: biochemical
Conditions in all cases: read-out: % inhibition at 1 mM
BsGH164 [1] = biological target: T1, BsGH164 (Bacteroides salyersiae, UniProt I9SUA3); assay: residual activity with 4MU-beta-Man after preincubation; covalent crystal structure ([…] A) and intact MS
T1 construct: gene HMPREF1071_03408; recombinant pET28-His6-BsGH164, E. coli, His6 kept; GH164 exo-beta-mannosidase
T1 sequence (I9SUA3 20-673): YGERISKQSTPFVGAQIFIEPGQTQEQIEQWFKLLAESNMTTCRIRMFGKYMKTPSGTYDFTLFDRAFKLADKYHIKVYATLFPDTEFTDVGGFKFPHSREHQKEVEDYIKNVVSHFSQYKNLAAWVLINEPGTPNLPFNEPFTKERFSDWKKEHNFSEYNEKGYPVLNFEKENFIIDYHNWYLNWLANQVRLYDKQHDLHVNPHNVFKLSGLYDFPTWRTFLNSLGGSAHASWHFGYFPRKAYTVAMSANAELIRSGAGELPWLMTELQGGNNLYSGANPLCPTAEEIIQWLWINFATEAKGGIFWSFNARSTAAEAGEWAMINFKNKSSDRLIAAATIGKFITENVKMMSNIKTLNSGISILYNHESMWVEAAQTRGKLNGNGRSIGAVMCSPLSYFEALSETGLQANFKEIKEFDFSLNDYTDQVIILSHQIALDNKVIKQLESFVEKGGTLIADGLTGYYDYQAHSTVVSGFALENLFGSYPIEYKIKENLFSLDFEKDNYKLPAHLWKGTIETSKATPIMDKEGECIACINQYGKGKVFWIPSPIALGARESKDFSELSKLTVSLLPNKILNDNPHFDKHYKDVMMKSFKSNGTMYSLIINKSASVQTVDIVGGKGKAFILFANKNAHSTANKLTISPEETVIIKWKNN

CmMan5A [2] = biological target: T2, CmMan5A (Cellvibrio mixtus, UniProt Q6QT42); assay: residual activity with 4MU-beta-Man after preincubation; intact MS
T2 construct: gene man5A; recombinant, codon-optimised gene in pET24a (NdeI/XhoI), C-terminal 6xHis, E. coli; matches previously crystallised form; GH5
T2 sequence (Q6QT42 26-456): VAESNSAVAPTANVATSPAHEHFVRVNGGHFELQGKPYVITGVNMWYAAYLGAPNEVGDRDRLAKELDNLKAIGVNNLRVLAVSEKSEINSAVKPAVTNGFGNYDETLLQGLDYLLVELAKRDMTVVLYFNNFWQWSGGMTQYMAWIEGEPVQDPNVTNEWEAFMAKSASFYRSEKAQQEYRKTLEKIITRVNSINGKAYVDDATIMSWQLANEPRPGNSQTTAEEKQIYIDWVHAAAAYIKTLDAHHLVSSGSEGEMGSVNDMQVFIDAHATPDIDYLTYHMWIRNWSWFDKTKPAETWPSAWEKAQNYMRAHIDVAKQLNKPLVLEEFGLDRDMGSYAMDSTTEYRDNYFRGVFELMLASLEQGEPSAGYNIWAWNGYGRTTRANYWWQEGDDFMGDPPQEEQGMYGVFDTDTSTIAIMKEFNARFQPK

BsGH164 [3] = biological target: T1, BsGH164; assay: residual activity with 4MU-beta-Man after preincubation; covalent crystal structure ([…] A) and intact MS; remark: listed apart in the source
CmMan5A [4] = biological target: T2, CmMan5A; assay: as above
BtMan2A = biological target: T3, BtMan2A (Bacteroides thetaiotaomicron, UniProt Q8AAK6); assay: as above
T3 construct: gene BT_0458; recombinant pET28a-BtMan2A-His6, E. coli, His tag kept; GH2 exo-beta-mannosidase
T3 sequence (Q8AAK6 26-864): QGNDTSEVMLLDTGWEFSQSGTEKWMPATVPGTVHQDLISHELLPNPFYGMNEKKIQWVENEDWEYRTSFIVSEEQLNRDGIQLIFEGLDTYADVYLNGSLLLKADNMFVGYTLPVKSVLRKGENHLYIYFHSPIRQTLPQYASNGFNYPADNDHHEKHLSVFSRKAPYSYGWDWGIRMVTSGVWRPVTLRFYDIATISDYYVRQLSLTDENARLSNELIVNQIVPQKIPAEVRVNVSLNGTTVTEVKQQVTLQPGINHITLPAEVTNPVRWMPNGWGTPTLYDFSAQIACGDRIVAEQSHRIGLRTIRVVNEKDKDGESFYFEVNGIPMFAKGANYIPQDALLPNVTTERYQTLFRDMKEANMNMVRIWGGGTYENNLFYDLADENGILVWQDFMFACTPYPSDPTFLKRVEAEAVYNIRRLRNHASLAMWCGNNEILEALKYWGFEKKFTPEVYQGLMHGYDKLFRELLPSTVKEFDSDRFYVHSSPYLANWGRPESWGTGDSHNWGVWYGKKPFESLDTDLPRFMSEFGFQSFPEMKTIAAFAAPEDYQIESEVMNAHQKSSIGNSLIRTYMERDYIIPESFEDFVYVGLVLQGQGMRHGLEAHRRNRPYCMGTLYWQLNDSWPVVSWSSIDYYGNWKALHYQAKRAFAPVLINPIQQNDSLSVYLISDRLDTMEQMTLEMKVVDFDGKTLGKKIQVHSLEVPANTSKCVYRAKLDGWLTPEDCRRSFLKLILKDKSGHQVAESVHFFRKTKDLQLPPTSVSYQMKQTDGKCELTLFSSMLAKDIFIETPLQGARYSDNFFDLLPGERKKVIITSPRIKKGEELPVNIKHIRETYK

| inhibition at 1000 µM (BsGH164 [1]) | SMILES | inhibition at 1000 µM (CmMan5A [2]) | inhibition at 1000 µM (BsGH164 [3]) | inhibition at 1000 µM (CmMan5A [4]) | inhibition at 1000 µM (BtMan2A) |
| --- | --- | --- | --- | --- | --- |
| 76% | OC[C@@H]1[C@@H](O)[C@H](O)[C@H](O)[C@@H]2O[C@H]12 [compound 1, β-D-manno-cyclophellitol] | 20% |  |  |  |
|  | OC[C@@H]1[C@@H](O)[C@H](O)[C@H](O)[C@@H]2N[C@H]12 [compound 2, β-D-manno-cyclophellitol aziridine] | 20% | 30% |  |  |
|  | [N-]=[N+]=NCCCCCCCCN1[C@@H]2[C@H](CO)[C@@H](O)[C@H](O)[C@H](O)[C@@H]21 (stereo partly drawn) [compound 3, N-octylazido aziridine 3] |  |  | 85% | 85% |
